One assay concerns ob/ob mice. Kind of assay: Single s.c. injection of human FGF1 or other FGFs, blood glucose in ob/ob mice (Examples 13, 14). It counts as in vivo, mouse. Particulars: 0.5 mg/kg s.c. The protocol: FIG. 26. Human recombinant FGF-1 is effective in mice.
FIG. 27. Comparison of FGF1, FGF2, FGF9, and FGF10 effects. Single subcutaneous injection of FGFs (0.5 mg/kg) in ob/ob mice.
As human recombinant FGF-1 is already being used in the clinic, the present methods of using it to treat metabolic disorders offer a straightforward regulatory path to treatment.
As explained above, the FGF family of factors bind to members of the FGFR family of receptors with different specificities. FGF-1 binds preferentially to FGFR1 and FGFR4, and can be internalized into a cell expressing these receptors. To determine if other FGF proteins have similar metabolic effects as FGF-1, we tested blood glucose in ob/ob mice treated with FGF-2, FGF-9, and FGF-10 (0.5 mg/kg s.c.). This combination of FGF proteins binds to the spectrum of FGFRs.

Another assay has as its system ob/ob male mice. The assay can be described thus: Daily FGF-1 or rosiglitazone treatment of ob/ob mice: fed blood glucose and body composition (Example 5). Type of assay: in vivo, mouse. Particulars: fed ob/ob male mice, one hour after treatment; FGF-1 0.5 mg/kg/day s.c., TZD 5 mg/kg/day p.o.; about 400 mg/dl before treatment. The protocol:
FIGS. 7A-7H. FGF-1 injection studies in rodents. (A) Fed blood glucose in ob/ob male mice treated with FGF-1 (0.5 mg/kg, s.c.), rosiglitazone (TZD, 5 mg/kg, p.o.), or vehicle. FGF-1 was administered once daily, and blood glucose levels were measured at day 0 (basal levels before FGF-1 injection), day 3, and day 6, 1 hour after injection. The values (±SE) shown are the average of the measurements of 5 animals in a group; (B) Sustained glucose lowering effects of FGF-1: Fed blood glucose levels in ob/ob mice at indicated time points after the last FGF-1 injection at day 6. (C-H): 72 hrs after the sixth dose, another dose was given and effects of FGF-1 and TZD on (C) body weight, (D) total body fat, (E) lean weight, (F) weight gain, (G) liver weight, and (H) heart weight were determined.
In Example 5, ob/ob male mice (8 wk old) were randomized into three groups and treated with daily subcutaneous (s.c.) injections of recombinant mouse FGF-1 (0.5 mg/kg in PBS), oral rosiglitazone (TZD, 5 mg/kg in 0.5% carboxymethyl cellulose), or vehicle. Blood glucose levels were measure in fed animals one hour after treatment. Total body composition analysis was performed using an EchoMRI-100™ (Echo Medical Systems, LLC).
Eight-week-old male ob/ob mice were treated with recombinant mouse FGF-1 (0.5 mg/kg/day, s.c. in 250 μl), rosiglitazone (TZD, 5 mg/kg/day, p.o. in 300 μl), or vehicle control (s.c. vehicle control 0.9% NaCl, 250 μl/mouse; p.o. vehicle control 0.5% CMC, 300 μl/mouse). Blood glucose was measured one hour after treatment at day 3 and day 6 using a standard protocol. (FIG. 7A).
Before treatment, all groups were severely hyperglycemic, as indicated by blood glucose levels of about 400 mg/dl. […] At 6 days, blood glucose levels were even further reduced to around 130-140 mg/dl for both groups. After the sixth dose, blood glucose levels were monitored for another 72 hrs. During this period, both FGF-1- and TZD-treated cohorts maintained normoglycemic levels (<140 mg/dl) for at least 48 hrs (FIG. 7B). At 72 hrs after the sixth dose, a final dose was given, and 12 hrs later, a total body composition analysis was performed by MRI followed by necropsy.

“FGF2: other FGF protein tested for comparison with FGF-1 [reference compound]”: the “blood glucose in ob/ob mice after a single s.c. injection” value (“blood glucose in ob/ob mice” for short) in the assay with ob/ob mice is given as “Only FGF1 has glucose normalizing effects”. In the case of “human FGF1: human recombinant FGF-1; human protein is 155 amino acids, SwissProt P05230.1”, the results for the “blood glucose in ob/ob mice” value in the assay on ob/ob mice and in the assay with ob/ob mice (listed as hrFGF-1) were “normalizes blood glucose” and “can effectively reduce glucose levels”, respectively. Consider `CN(CCOc1ccc(CC2SC(=O)NC2=O)cc1)c1ccccn1` (centres unmarked) [rosiglitazone, reference compound], for which the “blood glucose levels at day three” value in the assay with ob/ob male mice is “about 200 mg/dl”.

B1: FGF10: other FGF protein tested for comparison with FGF-1 (protein, UniProt O15520 38-208, looked up)
Fibroblast growth factor 10: QALGQDMVSPEATNSSSSSFSSPSSAGRHVRSYNHLQGDVRWRKLFSFTKYFLKIEKNGKVSGTKKENCPYSILEITSVEIGVVAVKAINSNYYLAMNKKGKLYGSKEFNNDCKLKERIEENGYNTYASFNWQHNGRQMYVALNGKGAPRRGQKTRRKNTSAHFLPMVVHS
Consider B1, for which the “blood glucose in ob/ob mice” value in the assay with ob/ob mice is recorded as “Only FGF1 has glucose normalizing effects”.

The values are drawn from patent US10293027B2, “Methods for treating metabolic disorders using FGF” (Salk Institute for Biological Studies, priority 2010, dated 2019).
